US20260069588A1, “VEPDEGESTRANT FOR USE IN TREATING CANCER” (Arvinas Operation, Inc., priority 2022, published 2026)

Molecular target: T1, ER (Homo sapiens, UniProt P03372)
T1 sequence (P03372 1-595): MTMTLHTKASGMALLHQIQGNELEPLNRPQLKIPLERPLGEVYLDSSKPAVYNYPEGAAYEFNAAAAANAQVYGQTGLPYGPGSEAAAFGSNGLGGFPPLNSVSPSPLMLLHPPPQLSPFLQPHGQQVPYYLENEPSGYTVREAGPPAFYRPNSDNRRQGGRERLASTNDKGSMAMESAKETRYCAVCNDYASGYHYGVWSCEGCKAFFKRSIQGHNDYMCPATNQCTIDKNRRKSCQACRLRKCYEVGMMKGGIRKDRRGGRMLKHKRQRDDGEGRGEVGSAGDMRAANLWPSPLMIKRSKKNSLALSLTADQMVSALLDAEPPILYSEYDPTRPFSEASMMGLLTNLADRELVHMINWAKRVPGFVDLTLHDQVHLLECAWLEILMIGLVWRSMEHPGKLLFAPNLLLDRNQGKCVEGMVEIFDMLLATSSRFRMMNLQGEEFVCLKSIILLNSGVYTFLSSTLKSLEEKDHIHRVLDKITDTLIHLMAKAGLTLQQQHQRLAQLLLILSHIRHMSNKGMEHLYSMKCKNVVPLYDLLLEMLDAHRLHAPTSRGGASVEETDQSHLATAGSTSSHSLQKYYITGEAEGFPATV
Test: ER degradation in ER+ cell lines (MCF7)
Type: cell-based
Set-up: endogenous in cells; host or cells: MCF7 (and a panel of unnamed ER+ cell lines)
Conditions: MCF7 cells

**Q.** Which results are given for `O=C1CC[C@H](N2Cc3cc(N4CCN(CC5CCN(c6ccc([C@@H]7c8ccc(O)cc8CC[C@@H]7c7ccccc7)cc6)CC5)CC4)ccc3C2=O)C(=O)N1` [Compound A, (S)-3-(5-(4-((1-(4-((1R,2S)-6-hydroxy-2-phenyl-1,2,3,4-tetrahydronaphthalen-1-yl)phenyl)piperidin-4-yl)methyl)piperazin-1-yl)-1-oxoisoindolin-2-yl)piperidine-2,6-dione]?
**A.** ER degradation with excess lenalidomide or with carfilzomib: No degradation of ER; maximum ER degradation: > 90%
